# Data from ChEMBL document CHEMBL5244229, “Thiazole-containing compounds as therapeutic targets for cancer therapy” (Eur J Med Chem, 2020).
# Tests used:
# [1] = test system: MCF7; experiment: Induction of apoptosis in human MCF7 cells assessed as dead cells at 10 uM measured after 6 hrs by annexin V-FITC/propidium iodide staining based flow cytometry analysis (reference value: 5.14+/-0.44%); type: functional
# [2] = test system: T47D; experiment: Cytotoxicity against human T47D cells; type: functional, cell-based
# [3] = test system: MDA-MB-231; experiment: Cytotoxicity against human MDA-MB-231 cells assessed as inhibition of cell growth incubated for 48 hrs by MTT assay; type: functional, cell-based; conditions: MDA-MB-231, 48 h
# [4] = test system: HepG2; experiment: Cytotoxicity against human HepG2 cells assessed as inhibition of cell growth incubated for 48 hrs by MTT assay; type: functional, cell-based; conditions: HepG2, 48 h
# [5] = target: Vascular endothelial growth factor receptor 2 (Homo sapiens) (UniProt P35968); experiment: Inhibition of VEGFR2 (unknown origin) at 20 uM using 5-FAM-KKKKEEIYFFF-CONH2 as substrate incubated for 1 hr in presence of ATP by kinase glo-assay relative to control
# [6] = test system: C6; experiment: Induction of apoptosis in rat C6 cells assessed as early apoptotic cells for 24 hrs by FITC-annexin V/PI based flow cytometry; type: functional
# [7] = test system: C6; experiment: Inhibition of Akt in rat C6 cells measured after 30 mins by ELISA analysis; type: cell-based
# [8] = test system: C6; experiment: Induction of apoptosis in rat C6 cells assessed as late apoptotic cells for 24 hrs by FITC-annexin V/PI based flow cytometry; type: functional
# [9] = test system: A549; experiment: Induction of apoptosis in human A549 cells assessed as late apoptotic cells for 24 hrs by FITC-annexin V/PI based flow cytometry; type: functional
# [10] = test system: A549; experiment: Induction of apoptosis in human A549 cells assessed as early apoptotic cells for 24 hrs by FITC-annexin V/PI based flow cytometry; type: functional
# [11] = test system: HepG2; experiment: Anticancer activity against human HepG2 cells assessed as inhibition of cell proliferation at 25 uM measured after 24 hrs by MTT assay; type: functional, cell-based; conditions: HepG2, 24 h
# [12] = test system: HCT-116; experiment: Antiproliferative activity against human HCT-116 cells assessed as cell growth inhibition; type: functional
# [13] = target: Nuclear factor NF-kappa-B complex (Homo sapiens) (UniProt Q00653+P19838+Q04206); experiment: Inhibition of NF-kB (unknown origin); type: protein-complex assay
# [14] = Anticancer activity against human PBMC cells; type: functional, cell-based
# [15] = test system: MV4-11; experiment: Anticancer activity against human MV4-11 cells; type: functional, cell-based
# [16] = test system: MCF7; experiment: Antiproliferative activity against human MCF7 cells assessed as reduction in cell viability incubated for 24 hrs by Celltiter-Glo cell viability assay; type: functional, cell-based; conditions: MCF7, 24 h
# [17] = test system: HCT-116; experiment: Anticancer activity against human HCT-116 cells; type: functional, cell-based
# [18] = test system: SMMC-7721; experiment: Cytotoxicity against human SMMC-7721 cells; type: functional, cell-based
# [19] = test system: MKN-45; experiment: Cytotoxicity against human MKN-45 cells; type: functional, cell-based
# [20] = test system: HT-29; experiment: Cytotoxicity against human HT-29 cells; type: functional, cell-based
# [21] = test system: A549; experiment: Antiproliferative activity against human A549 cells; type: functional, cell-based
# [22] = Cytotoxicity against human U-87 MG cells; type: functional, cell-based, U-87MG ATCC
# [23] = test system: NCI-H460; experiment: Cytotoxicity against human NCI-H460 cells; type: functional, cell-based
# [24] = test system: PC-3; experiment: Anticancer activity against human PC-3 cells; type: functional, cell-based
# [25] = test system: PC-3; experiment: Cytotoxicity against human PC-3 cells; type: functional
# [26] = test system: A549; experiment: Antiproliferative activity against human A549 cells assessed as reduction in cell viability; type: functional, cell-based
# [27] = test system: A549; experiment: Antiproliferative activity against human A549 cells relative to control; type: functional
# [28] = test system: HCT-8; experiment: Anticancer activity against human HCT-8 cells at 5 microg/ml relative to control; type: functional; conditions: dose 5 µg/ml
# [29] = test system: Cytochrome P450; experiment: Inhibition of CYP450 in human liver microsomes; type: ADME, Microsome
# [30] = test system: BALB/3T3; experiment: Antiproliferative activity against mouse BALB/3T3 cells assessed as reduction in cell viability incubated for 24 hrs by Celltiter-Glo cell viability assay; type: functional, cell-based; conditions: BALB/3T3, 24 h
# [31] = test system: MV4-11; experiment: Antiproliferative activity against human MV4-11 cells assessed as reduction in cell viability incubated for 24 hrs by Celltiter-Glo cell viability assay; type: functional, cell-based; conditions: MV4-11, 24 h
# [32] = test system: HCT-116; experiment: Antiproliferative activity against human HCT-116 cells assessed as reduction in cell viability incubated for 24 hrs by Celltiter-Glo cell viability assay; type: functional, cell-based; conditions: HCT-116, 24 h
# [33] = target: Epidermal growth factor receptor (Homo sapiens, UniProt P00533); experiment: Inhibition of EGFR (unknown origin)
# [34] = test system: HCT-116; experiment: Cytotoxicity against human HCT-116 cells assessed as reduction in cell viability by MTT assay; type: functional, cell-based
# [35] = test system: HeLa; experiment: Cytotoxicity against human HeLa cells assessed as reduction in cell viability by MTT assay; type: functional, cell-based
# [36] = test system: MDA-MB-231; experiment: Cytotoxicity against human MDA-MB-231 cells assessed as reduction in cell viability by MTT assay; type: functional, cell-based
# [37] = test system: MCF7; experiment: Cytotoxicity against human MCF7 cells assessed as reduction in cell viability by MTT assay; type: functional, cell-based
# Chain of Nuclear factor NF-kappa-B complex (Homo sapiens) (P19838 whole entry, looked up): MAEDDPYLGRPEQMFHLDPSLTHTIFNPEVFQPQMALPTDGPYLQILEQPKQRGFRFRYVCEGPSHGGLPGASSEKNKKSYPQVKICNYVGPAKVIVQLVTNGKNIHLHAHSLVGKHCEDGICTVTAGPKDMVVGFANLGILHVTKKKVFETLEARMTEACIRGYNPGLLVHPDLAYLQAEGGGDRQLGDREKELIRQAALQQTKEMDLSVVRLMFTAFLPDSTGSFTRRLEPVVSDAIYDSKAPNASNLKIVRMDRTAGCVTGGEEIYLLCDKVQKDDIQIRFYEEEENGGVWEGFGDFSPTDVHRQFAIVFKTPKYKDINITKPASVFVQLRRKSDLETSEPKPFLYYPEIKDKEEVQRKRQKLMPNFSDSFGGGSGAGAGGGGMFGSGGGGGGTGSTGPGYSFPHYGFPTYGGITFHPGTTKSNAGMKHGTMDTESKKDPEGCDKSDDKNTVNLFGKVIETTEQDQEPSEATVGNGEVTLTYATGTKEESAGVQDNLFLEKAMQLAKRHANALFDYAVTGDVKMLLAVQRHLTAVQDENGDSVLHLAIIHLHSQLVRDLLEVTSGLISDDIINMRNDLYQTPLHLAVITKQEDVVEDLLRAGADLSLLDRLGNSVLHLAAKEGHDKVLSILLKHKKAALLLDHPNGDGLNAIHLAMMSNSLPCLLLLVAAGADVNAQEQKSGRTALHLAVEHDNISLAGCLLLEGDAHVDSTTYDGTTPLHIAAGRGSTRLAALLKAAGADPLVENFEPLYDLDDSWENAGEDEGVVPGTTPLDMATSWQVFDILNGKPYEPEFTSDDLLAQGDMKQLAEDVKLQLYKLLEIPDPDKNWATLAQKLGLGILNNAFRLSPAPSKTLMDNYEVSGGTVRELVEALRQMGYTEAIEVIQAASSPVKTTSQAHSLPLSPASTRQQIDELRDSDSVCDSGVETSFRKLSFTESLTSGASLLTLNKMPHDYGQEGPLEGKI
# Chain of Nuclear factor NF-kappa-B complex (Homo sapiens) (Q00653 whole entry, looked up): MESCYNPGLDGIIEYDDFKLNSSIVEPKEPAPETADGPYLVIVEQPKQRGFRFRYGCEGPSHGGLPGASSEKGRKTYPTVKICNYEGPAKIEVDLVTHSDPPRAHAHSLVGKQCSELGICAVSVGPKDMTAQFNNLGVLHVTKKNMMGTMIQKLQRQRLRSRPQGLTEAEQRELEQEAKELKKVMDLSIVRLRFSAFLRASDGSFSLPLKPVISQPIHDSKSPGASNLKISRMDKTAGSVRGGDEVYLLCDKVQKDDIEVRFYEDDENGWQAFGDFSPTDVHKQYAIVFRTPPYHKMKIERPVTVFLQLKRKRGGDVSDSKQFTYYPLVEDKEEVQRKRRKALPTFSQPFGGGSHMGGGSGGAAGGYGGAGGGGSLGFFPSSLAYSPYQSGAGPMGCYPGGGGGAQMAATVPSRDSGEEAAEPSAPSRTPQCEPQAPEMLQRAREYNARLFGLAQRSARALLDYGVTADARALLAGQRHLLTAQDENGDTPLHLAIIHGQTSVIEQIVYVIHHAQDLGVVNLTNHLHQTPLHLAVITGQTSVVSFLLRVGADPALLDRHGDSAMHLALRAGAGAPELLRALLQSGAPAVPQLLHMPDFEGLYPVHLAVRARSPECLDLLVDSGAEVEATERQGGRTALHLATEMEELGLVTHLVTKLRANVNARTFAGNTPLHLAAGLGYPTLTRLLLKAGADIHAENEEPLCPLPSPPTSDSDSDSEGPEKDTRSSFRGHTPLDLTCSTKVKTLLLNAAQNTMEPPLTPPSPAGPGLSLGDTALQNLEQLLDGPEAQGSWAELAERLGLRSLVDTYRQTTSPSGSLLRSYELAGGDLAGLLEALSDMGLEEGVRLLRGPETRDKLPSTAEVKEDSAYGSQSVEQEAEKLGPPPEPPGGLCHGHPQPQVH
# Chain of Nuclear factor NF-kappa-B complex (Homo sapiens) (Q04206 whole entry, looked up): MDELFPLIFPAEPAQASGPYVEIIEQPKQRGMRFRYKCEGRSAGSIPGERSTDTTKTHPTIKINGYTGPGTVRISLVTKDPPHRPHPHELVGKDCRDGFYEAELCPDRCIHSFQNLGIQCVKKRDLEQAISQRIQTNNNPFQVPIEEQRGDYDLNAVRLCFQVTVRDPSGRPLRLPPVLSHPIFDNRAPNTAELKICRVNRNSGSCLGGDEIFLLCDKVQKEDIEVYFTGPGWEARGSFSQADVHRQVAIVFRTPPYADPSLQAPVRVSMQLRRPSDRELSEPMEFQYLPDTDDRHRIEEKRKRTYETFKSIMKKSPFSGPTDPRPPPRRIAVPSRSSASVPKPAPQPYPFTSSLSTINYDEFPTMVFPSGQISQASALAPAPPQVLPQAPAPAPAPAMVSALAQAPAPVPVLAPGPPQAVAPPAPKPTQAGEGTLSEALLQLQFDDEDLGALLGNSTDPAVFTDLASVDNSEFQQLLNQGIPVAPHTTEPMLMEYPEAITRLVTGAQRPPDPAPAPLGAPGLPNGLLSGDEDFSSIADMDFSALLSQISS
# Chain of Epidermal growth factor receptor (P00533 whole entry): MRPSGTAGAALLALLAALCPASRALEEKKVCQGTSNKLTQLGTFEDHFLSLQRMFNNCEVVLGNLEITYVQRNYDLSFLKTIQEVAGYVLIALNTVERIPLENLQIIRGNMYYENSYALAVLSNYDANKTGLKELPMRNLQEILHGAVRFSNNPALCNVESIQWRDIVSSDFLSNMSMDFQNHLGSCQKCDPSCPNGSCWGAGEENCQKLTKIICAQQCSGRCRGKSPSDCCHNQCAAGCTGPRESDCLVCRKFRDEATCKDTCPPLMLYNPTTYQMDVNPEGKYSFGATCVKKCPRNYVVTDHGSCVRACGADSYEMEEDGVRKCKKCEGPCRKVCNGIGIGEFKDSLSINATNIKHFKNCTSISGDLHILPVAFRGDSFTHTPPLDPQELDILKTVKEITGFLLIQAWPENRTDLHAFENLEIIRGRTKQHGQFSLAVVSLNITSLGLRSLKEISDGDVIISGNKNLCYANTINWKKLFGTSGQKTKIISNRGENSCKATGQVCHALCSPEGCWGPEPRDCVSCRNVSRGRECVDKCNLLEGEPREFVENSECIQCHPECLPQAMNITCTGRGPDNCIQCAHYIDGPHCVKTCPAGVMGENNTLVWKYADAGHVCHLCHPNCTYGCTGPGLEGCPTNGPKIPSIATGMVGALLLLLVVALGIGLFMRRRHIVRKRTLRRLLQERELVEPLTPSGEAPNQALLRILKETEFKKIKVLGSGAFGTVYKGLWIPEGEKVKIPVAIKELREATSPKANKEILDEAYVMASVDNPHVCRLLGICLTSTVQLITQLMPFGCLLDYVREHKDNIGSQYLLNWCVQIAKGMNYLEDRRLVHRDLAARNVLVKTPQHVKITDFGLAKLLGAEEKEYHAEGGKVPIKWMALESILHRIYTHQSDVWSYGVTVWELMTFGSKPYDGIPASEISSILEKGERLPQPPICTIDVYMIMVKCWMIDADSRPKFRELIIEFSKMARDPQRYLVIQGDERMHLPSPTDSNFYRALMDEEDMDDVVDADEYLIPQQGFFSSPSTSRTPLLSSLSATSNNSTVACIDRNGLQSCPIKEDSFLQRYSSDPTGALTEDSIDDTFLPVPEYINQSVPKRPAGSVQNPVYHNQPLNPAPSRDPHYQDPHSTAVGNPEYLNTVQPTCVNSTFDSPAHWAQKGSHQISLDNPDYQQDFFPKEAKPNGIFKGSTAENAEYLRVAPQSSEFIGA
# Chain of Vascular endothelial growth factor receptor 2 (Homo sapiens) (P35968 whole entry): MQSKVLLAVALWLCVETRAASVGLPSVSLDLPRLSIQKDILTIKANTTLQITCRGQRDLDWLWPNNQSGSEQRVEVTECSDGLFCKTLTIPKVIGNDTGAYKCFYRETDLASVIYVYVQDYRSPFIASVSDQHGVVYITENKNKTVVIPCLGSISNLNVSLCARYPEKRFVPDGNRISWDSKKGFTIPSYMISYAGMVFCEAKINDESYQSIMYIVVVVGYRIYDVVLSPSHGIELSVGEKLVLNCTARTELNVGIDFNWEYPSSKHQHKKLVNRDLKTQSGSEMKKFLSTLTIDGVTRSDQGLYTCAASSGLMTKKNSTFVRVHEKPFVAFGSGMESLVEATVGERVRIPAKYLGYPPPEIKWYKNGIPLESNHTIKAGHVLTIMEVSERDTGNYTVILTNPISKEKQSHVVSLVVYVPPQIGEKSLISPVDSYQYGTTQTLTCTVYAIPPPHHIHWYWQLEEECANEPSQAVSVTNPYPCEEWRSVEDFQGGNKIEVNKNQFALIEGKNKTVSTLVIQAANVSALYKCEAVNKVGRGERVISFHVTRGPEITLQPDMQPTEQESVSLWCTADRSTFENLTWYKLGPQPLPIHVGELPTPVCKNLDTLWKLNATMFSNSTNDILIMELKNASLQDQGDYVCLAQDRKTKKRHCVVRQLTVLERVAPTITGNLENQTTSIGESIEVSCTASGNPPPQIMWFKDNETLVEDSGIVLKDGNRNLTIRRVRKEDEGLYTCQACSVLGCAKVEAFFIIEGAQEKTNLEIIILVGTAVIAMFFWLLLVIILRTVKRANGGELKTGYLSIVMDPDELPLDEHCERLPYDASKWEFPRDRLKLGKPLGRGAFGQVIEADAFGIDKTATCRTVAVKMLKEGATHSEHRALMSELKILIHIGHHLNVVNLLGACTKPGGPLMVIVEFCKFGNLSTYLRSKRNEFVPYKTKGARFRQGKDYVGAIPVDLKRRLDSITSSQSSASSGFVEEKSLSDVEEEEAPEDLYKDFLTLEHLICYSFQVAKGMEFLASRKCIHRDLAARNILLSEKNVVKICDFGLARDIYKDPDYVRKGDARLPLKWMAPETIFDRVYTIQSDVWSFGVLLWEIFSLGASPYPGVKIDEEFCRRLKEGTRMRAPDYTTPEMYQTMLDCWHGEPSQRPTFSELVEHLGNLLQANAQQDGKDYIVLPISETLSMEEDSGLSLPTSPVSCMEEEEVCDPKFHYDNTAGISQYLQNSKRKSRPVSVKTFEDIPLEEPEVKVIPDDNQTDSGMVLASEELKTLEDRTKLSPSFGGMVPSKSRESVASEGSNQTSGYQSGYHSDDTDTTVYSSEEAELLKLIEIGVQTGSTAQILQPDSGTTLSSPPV
compound,measurement,setting,value
COc1ccc(-c2nn(-c3ccccc3)cc2/C=N/Nc2nc(-c3ccc(Cl)cc3)cs2)cc1,Activity,[1],25.61%
Cc1ccc(Oc2ccc(-c3csc(N)n3)cc2)cc1,IC50,[2],540 nM
COc1ccc(CN2CCN(c3ccc(NC(=O)Cc4csc5nc(-c6ccc(Cl)cc6)cn45)cn3)CC2)cc1,IC50,[3],1400 nM
same,IC50,[4],22600 nM
same,inhibition,[5],5.72%
N#Cc1ccc(Oc2ccc(/C=N/Nc3nc(-c4ccc(C#N)cc4)cs3)cc2)cc1,Activity,[6],4.6%
same,inhibition,[7],71.7%
same,Activity,[8],28.2%
same,Activity,[9],36.5%
same,Activity,[10],2.3%
Cc1ccc(C2NC(=S)Nc3nc(Nc4ccc(S(N)(=O)=O)cc4)sc32)cc1 (configuration not stated),IC50,[11],43000 nM
Clc1nccc2c(-c3csc(-c4c[nH]c5ncc(Br)cc45)n3)c[nH]c12,GI50,[12],2350 nM
CNc1nc(C)c(-c2nc3ccccc3c(=O)n2-c2ccc(Cl)cc2)s1,IC,[13],3.3 µM
Clc1ccc(-c2csc(N/N=C/c3ccccn3)n2)cc1,IC50,[14],> 30000 nM
O=S(=O)(Nc1ccc(-c2csc(N/N=C/c3ccc(N(CCCl)CCCl)cc3)n2)cc1)c1ccc(C(F)(F)F)cc1,IC50,[15],2170 nM
same,IC50,[16],3.02 µg/mL
same,IC50,[17],3.02 µg/mL
CCOC(=O)/C(C(C)=O)=C1/SC=C(n2c(CC#N)nc3ccccc32)N1c1ccccc1,IC50,[18],230 nM
same,IC50,[19],230 nM
same,IC50,[20],230 nM
same,IC50,[21],230 nM
same,IC50,[22],230 nM
same,IC50,[23],230 nM
Cc1c(-c2csc(N)n2)sc2sc(-c3csc(N)n3)c(-c3ccccc3)c12,IC50,[24],24200 nM
same,Activity,[25],>30%
COc1ccc(-c2csc(Nc3ccc(OC)cc3OC)n2)cc1,IC50,[26],860 nM
Cc1cc(Cl)ccc1NC(=O)c1sc(-c2ccccc2Cl)nc1C(F)(F)F,Activity,[27],48%
same,Activity,[28],40%
Cc1ncc(C2=CCC3C4CC=C5CC(O)CCC5(C)C4CCC23C)s1 (configuration not stated),inhibition (INH),[29],72.1%
CC(=O)C(C(C)=O)=C1SC=C(n2c(CC#N)nc3ccccc32)N1c1ccccc1,IC50,[18],250 nM
same,IC50,[19],250 nM
same,IC50,[20],250 nM
same,IC50,[21],250 nM
same,IC50,[22],250 nM
same,IC50,[23],250 nM
C/C(=N\Nc1nc(-c2ccc(Cl)cc2)cs1)c1ccccn1,IC50,[14],> 30000 nM
O=S(=O)(Nc1ccc(-c2csc(N/N=C/c3ccc(N(CCCl)CCCl)cc3)n2)cc1)c1c(F)c(F)c(F)c(F)c1F,IC50,[15],2170 nM
same,IC50,[30],3.2 µg/mL
same,IC50,[16],3.42 µg/mL
same,IC50,[31],2.17 µg/mL
same,IC50,[17],3.02 µg/mL
same,IC50,[32],3.02 µg/mL
O=C(Nn1c(-c2ccc(Br)cc2)cs/c1=N\c1ccc([N+](=O)[O-])cc1)c1ccc(Cl)cc1,IC50,[33],8280 nM
same,IC50,[34],5370 nM
same,IC50,[35],5370 nM
same,IC50,[36],5370 nM
same,IC50,[37],5370 nM
